# Data taken from patent US7829662B2, “Method of treating apoptosis and compositions thereof” (Dana Farber Cancer Institute, Inc., priority 2001, dated 2010).
# “Also recorded” adds a separate entry of the source. Peptide text beside a SMILES is read from it. * marks the point of attachment. Cbz = O=C(OCc1ccccc1)*; CH2F = FC*
# B1: myristoylated p7/p15 BID complex: Wt p22 BID cleaved with recombinant caspase 8 into the active p7/p15 BID complex (protein)
# p7: MDSEVSNGSGLGAKHITDLLVFGFLQSSGCTRQELEVLGRELPVQAYWEADLEDELQTD
# p15: GSQASRSFNQGRIEPDSESQEEIIHNIARHLAQIGDEMDHNIQPTLVRQLAAQFMNGSLSEEDKRNCLAKALDEVKTAFPRDMENDKAMLIMTMLLAKKVASHAPSLLRDVFHTTVNFINQNLFSYVRNLVRNEMD
# modifications: left off: small tags and cut ends
# Assays:
# mitochondria [1] = assay: Mitochondrial swelling by side scatter at 545 nm; assay type: biochemical, Balb/cJ mice; conditions: 400 μM Ca^2+, positive control
# Procedure: tBID was evaluated to determine if it causes any swelling or depolarization that might reflect an opening of the PTP. Swelling of 0.5 mg/ml mitochondria incubated in EB was monitored by changes in side scatter at 545±2.5 nm using LS-50B spectrofluorimeter equipped with magnetic stirring at 25° C. Membrane potential changes of 0.5 mg/ml mitochondria incubated in experimental buffer were monitored from the dequenching of a 0.3 μM Rhodamine 123 (Molecular Probes, OR) solution in a LS-50B spectrofluorimeter at 25° C., using excitation and emission wavelengths set at 503±2.5 nm and 525±5 nm, respectively.
# To determine if the BID α6 14mer (SEQ ID NO:1) induced mitochondrial swelling or release of cytochrome c across the mitochondrial outer membrane, mitochondria at 1 mg/ml were incubated in experimental buffer and, where indicated, 20 μM Ca^2+ and 10 μM 14mer were added. Where noted, mitochondria were preincubated with CsA. […] Mitochondria were incubated with 10 μM 14mer in the presence or in the absence of 1 μM CsA. At the indicated time in minutes, mitochondria were pelleted by centrifugation and cytochrome c in the pellet and in the supernatant was determined.
# wt mitochondria [2] = assay: Ascorbate/TMPD-driven respiration assay; assay type: biochemical, Balb/cJ mice; conditions: 200 nmol Ca^2+ × mg protein^−1
# Procedure: Symbols used are detailed in the legend. […] (a), no additions. […] Arrow, 6 mM ascorbate-Tris and 300 μM TMPD were added. Assays were developed to assess the amount of cytochrome c freely available in the IMS (FIGS. 3A, B). […] After the indicated time, 400 pmol CCCP and 1 nmol antimycin A×mg protein^−1 were added, and the reaction transferred to a Clark type oxygen electrode chamber. Final volume was 1 ml, 25° C. After 2 min, 6 mM ascorbate was added, followed after a further 3 min by 300 μM TMPD. The ascorbate-driven O2 consumption rate over the total TMPD-driven rate is plotted as a percentage of the ratio in the untreated mitochondria.
# wt mitochondria [3] = assay: Cytochrome b5-dependent NADH oxidation assay; assay type: biochemical, Balb/cJ mice
# Procedure: (d), mitochondria were preincubated for 2 min with 800 pmol CsA×mg protein^−1. (a), no additions. After 15 min, respiratory chain inhibitors were added and after another 2 minutes NADH fluorescence reading started. Arrow, 20 nmol NADH×mg protein^−1. In (e), 200 nmol mersalyl×mg protein was added 1 min before NADH.
# In the cytochrome b5-dependent NADH oxidation assay, 1 mg/ml mitochondria were incubated in EB and treated as indicated. 400 pmol CCCP, 2 nmol rotenone and 1 nmol antimycin A×mg protein^−1 were added after the time indicated and the reaction transferred to a cuvette. After 2 min, 10 μM NADH was added and its oxidation monitored as the decrease in NADH fluorescence in a LS50B spectrofluorimeter (Perkin Elmer) set with λex=366 nm and λem=455 nm, with 5 nm slits.
# Wt and DKO MEFs = assay: TEM morphology of mitochondria in cells after death stimuli; assay type: cell-based; conditions: 12 hrs after treatment; 2 μM thapsigargin, 2 μg/ml brefeldin A, 1 μg/ml tunicamycin
# Procedure: For apoptosis induction, MEFs were plated in 24-well plates at a density of 10^4 cells/well and grown for 24 hrs (Wei et al, 2001). Apoptosis was initiated by 2 μM thapsigargin, 2 μg/ml brefeldin A, 1 μg/ml tunicamycin or by 5 hrs of heat shock (43° C. in a humidified atmosphere of 95% air 5% CO2). Apoptosis was detected by flow cytometric detection of annexin V staining (BD Pharmingen) 24 hrs after the induction of cell death.
# Wt and DKO MEFs were treated where indicated with brefeldin A or heat shock. After 12 hrs cells were fixed and imaged. Bar, 200 nm. The insets show 2× magnification of the boxed mitochondria. […] Wt and DKO MEFs were treated with the indicated death stimulus and after 12 hrs cells were fixed, stained and TEMs collected. Morphometric analysis was conducted.
# [4] = tested on: calcein loaded mitochondria; assay: Release of matrix-entrapped calcein (transient PTP opening); assay type: biochemical, Balb/cJ mice; conditions: preincubated 3 min with 200 nmol/mg suramin; 320 pmol/mg tBID, 30 min
# Procedure: To assess calcein release, mitochondria suspended in IB without BSA were loaded with 10 nmol×mg protein^−1 calcein-AM (Molecular Probes, Eugene, Oreg.) for 20 mins at room temperature in the dark. Following two washes in IB, the calcein loaded mitochondria were resuspended in IB at a final concentration of 10 mg/ml. 0.5 mg/ml calcein loaded mitochondria were incubated in EB and treated as described. After the indicated time, mitochondria were pelleted. Calcein was measured in an LS-50B spectrofluorimeter (Perkin Elmer) with excitation and emission wavelengths set at 488±2.5 nm and 542±2.5 nm, respectively.
# After 30 min mitochondria were spun at 14000 g for 3 min at 4 C and the calcein content in the pellet and in the supernatant was determined. […] To determine if a BID α6 mutation variant, BID α6 mutein (SEQ ID NO:7), would inhibit cytochrome c release, His-tag p22 wt BID and the BID α6 mutein were expressed, purified on a Ni^2+ column, and cleaved with caspase 8.
# Mitochondria were loaded with calcein and treated with 10 μM BID α6 14mer. Where noted, mitochondria were pretreated with 1 μM CsA. At the indicated time, mitochondria were pelleted by centrifugation and calcein in the pellet and in the supernatant was determined.
# mitochondria [5] = assay: Cytochrome c release from isolated liver mitochondria (immunoblot densitometry or ELISA); assay type: biochemical, Balb/cJ mice
# Procedure: Mitochondria were isolated from liver of Balb/cJ mice by standard differential centrifugation, and resuspended in isolation buffer (IB) (0.2 M sucrose, 10 mM Tris-MOPS pH 7.4, 0.1 mM EGTA-Tris, 0.1% delipidated BSA).
# At the indicated time, mitochondria were pelleted by centrifugation at 12000×g at 4° C. for 3 min, and resuspended in the same volume of EB. Cytochrome c release was determined either by densitometry (Stratagene Eagle Eye II, BioRad) of immunoblots, or by rat/mouse specific ELISA performed on mitochondrial pellet and supernatant diluted 1:20 in PBS containing 0.5% Triton X-100 (R&D systems, MN). Cytochrome c is reported as the percentage of the supernatant over the total (pellet plus supernatant).
# For SDS-PAGE, 20 μg of mitochondrial protein was loaded in each lane of a 12% NuPAGE (NoVex, CA) gel. After separation, proteins were transferred onto PVDF membranes (Immobilon-P, Millipore, Calif.) and membranes were probed as indicated with the following primary antibodies: anti-cytochrome c (Pharmingen, CA, 1:1000); anti-BID (1:1500); anti-BAK (Calbiochem, CA, 1:1000). HRPO-conjugated secondary antibodies (CalTag, CA, 1:2000) were visualized by chemiluminescence (Amersham, N.J.).
# Mitochondria were incubated with increasing amounts of digitonin to assess how much cytochrome c was released from IMS by the selective solubilization of the OM (Hoppel and Cooper, 107, 367-375, 1968). To monitor interaction of digitonin with the […], uncoupled respiration in the presence of excess exogenous cytochrome c was assessed. Specifically 0.5 mg/ml mitochondria was incubated in EB with the indicated concentration of digitonin. After 5 minutes, mitochondria were centrifuged and cytochrome c content in the resulting pellet and supernatant were determined as described. Uncoupled JO2, uncoupled respiratory rate was recorded in parallel experiments. After 5 minutes of incubation with the indicated concentration of digitonin, mitochondria were treated with 400 pmol CCCP×mg protein-1 in the presence of 10 nmol cytochrome c×mg protein.
# mitochondria [6] = assay: Adenylate kinase (AK) release from mitochondria; assay type: biochemical, Balb/cJ mice; conditions: preincubation: 800 pmol CsA × mg protein^−1 or 0.1 μg × mg protein^−1 anti-BAK Ab
# Procedure: AK release was determined similar to that described for cytochrome c release. AK was quantified measuring its enzymatic activity by assessing the rate of NADH oxidation at 366 nm using a Beckman DU-10 spectrophotometer. 10 μl of the supernatant or pellet were added to a reaction mixture containing 0.5 mM phosphoenolpyruvate, ATP, AMP, 1 mM NADH, and 60 units of pyruvate kinase and lactate dehydrogenase, in 130 mM KCl, 6 mM MgSO4 and 100 mM Tris-Cl. Final volume 0.1 ml, pH 7.4, 25° C. AK release is reported (as described for cytochrome c) as the percentage of the supernatant over the total (pellet plus supernatant).
molecule,measurement,setting,value
[Ca+2] [Ca^2+],mitochondrial swelling,mitochondria [1],maximal swelling
same,ascorbate-driven respiration,wt mitochondria [2],increases the ascorbate-driven respiration
same,cytochrome b5-dependent NADH oxidation rate,wt mitochondria [3]; 200 nmol Ca^2+ × mg protein^−1,increased the rate of NADH oxidation
C[C@H]1CCC/C=C/[C@@H]2C[C@H](O)C[C@H]2[C@H](O)/C=C/C(=O)O1 [brefeldin A],mitochondrial morphology in cells,Wt and DKO MEFs,frequent mitochondria with Class II morphology
COC(CNC(=O)c1ccccc1OCC(=O)O)[CH2][Hg][OH] (centres unmarked) [mersalyl],effect on increases in NADH oxidation,wt mitochondria [3]; 200 nmol mersalyl × mg protein added 1 min before NADH,totally inhibited
Cc1ccc(C(=O)Nc2ccc(S(=O)(=O)O)c3cc(S(=O)(=O)O)cc(S(=O)(=O)O)c23)cc1NC(=O)c1cccc(NC(=O)Nc2cccc(C(=O)Nc3cc(C(=O)Nc4ccc(S(=O)(=O)O)c5cc(S(=O)(=O)O)cc(S(=O)(=O)O)c45)ccc3C)c2)c1 [suramin],effect on tBID-induced calcein release (transient permeability transition),[4],blocked tBID-induced transient permeability transition; also recorded: specifically inhibits calcein release induced by tBID
C/C=C(/C)C(=O)O[C@H]1C(C)=C2[C@H]([C@@H]1OC(=O)CCCCCCC)[C@@](C)(OC(C)=O)C[C@H](OC(=O)CCC)[C@@]1(O)[C@H]2OC(=O)[C@@]1(C)O [thapsigargin],mitochondrial morphology in cells,Wt and DKO MEFs,frequent mitochondria with Class II morphology
COC(=O)C[C@H](NC(=O)[C@H](C)NC(=O)[C@@H](NC(=O)OCc1ccccc1)C(C)C)C(=O)CF [zVAD-fmk] (Cbz-Val-Ala-Asp(OMe)-CH2F),effect on tBID induced cytochrome c release,mitochondria [5]; preincubation: 800 pmol CsA × mg protein^−1 or 0.1 μg × mg protein^−1 anti-BAK Ab,Neither anti-BCL-XL antibody nor the broad specificity caspase inhibitor zVAD-fmk had any effect
same,effect on tBID induced AK release,mitochondria [6],Neither anti-BCL-XL antibody nor the broad specificity caspase inhibitor zVAD-fmk had any effect
"NH2-XMLXXXXLLAAAVA-COOH [BID α6 mutein, BID α6 mutation variant where two lysine residues were changed to alanine residues; p7/p15 caspase cleaved]",cytochrome c released from mitochondria,mitochondria [5]; 1.6 pmol p7/p15 caspase cleaved BID × mg protein^−1,~20%
same,cytochrome c release from mitochondria,"mitochondria [5]; 1.6 pmol p7/p15 caspase cleaved BID × mg protein^−1, compared with wt p7/p15 BID",impaired release of cytochrome c; also recorded: does not completely release cytochrome c
same,cytochrome c mobilization (cytochrome b5-dependent NADH oxidation),wt mitochondria [3]; BID α6 mutein compared to wt,cytochrome c had not been mobilized; also recorded: fails to mobilize cytochrome c
tunicamycin,mitochondrial morphology in cells,Wt and DKO MEFs,frequent mitochondria with Class II morphology
B1,cytochrome c release from mitochondria,mitochondria [5]; 0.32 pmol × mg protein^−1,Complete cytochrome c release
